Measurements: EP0626016B1, “[…] […]” (BRITISH TECHNOLOGY GROUP LIMITED, priority 1992, dated 1993)
Like-named read-outs stand apart in the source and are kept apart here.

Biological target: T1, HRP Type VIA (Armoracia rusticana, UniProt P00433)
T1 sequence (P00433 31-338): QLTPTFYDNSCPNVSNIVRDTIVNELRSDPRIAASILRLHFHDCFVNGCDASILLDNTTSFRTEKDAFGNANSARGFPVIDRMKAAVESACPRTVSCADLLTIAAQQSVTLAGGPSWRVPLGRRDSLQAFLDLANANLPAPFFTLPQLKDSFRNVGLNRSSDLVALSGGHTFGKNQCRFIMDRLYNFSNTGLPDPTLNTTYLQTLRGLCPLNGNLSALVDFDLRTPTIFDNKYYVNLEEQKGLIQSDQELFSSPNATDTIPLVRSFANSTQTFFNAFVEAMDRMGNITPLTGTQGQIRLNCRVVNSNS
Details: 10µl test compound; for (d) Signal: Background: ratio (control = with no enhancer): control value in brackets not reported

Row | (a) Decrease in background (without HRP with test cpd.) (0.01 mg/ml) | (b) Increase in signal (with HRP, with test cpd.) (0.01 mg/ml) | (d) Signal: Background: ratio (control = with no enhancer) (0.01 mg/ml) | (a) Decrease in background (without HRP with test cpd.) (0.1 mg/ml) | (b) Increase in signal (with HRP, with test cpd.) (0.1 mg/ml) | (d) Signal: Background: ratio (control = with no enhancer) (0.1 mg/ml) | (a) Decrease in background (without HRP with test cpd.) (1 mg/ml) | (b) Increase in signal (with HRP, with test cpd.) (1 mg/ml) | (d) Signal: Background: ratio (control = with no enhancer) (1 mg/ml) | SMILES | (c) Increase in signal: background ratio (0.01 mg/ml) | (c) Increase in signal: background ratio (0.1 mg/ml) | (c) Increase in signal: background ratio (1 mg/ml)
1 | Y | N | 2.2 (2.0) | Y | N | – | Y | N | – | OB(O)c1c(Cl)cc(Cl)cc1Cl [Compound 1020, 2,4,6-trichlorophenylboronic acid] | N (N = no) | N (N = no) | N (N = no)
2 | Y | Y | 2.3 (1.8) | Y | Y | 44.5 (2.8) | Y | Y | 247.9 (4.5) | O=[N+]([O-])c1cc(B(O)O)ccc1Cl [Compound 1021, 4-chloro-3-nitrophenylboronic acid] | Y (Column (c) shows whether there was an increase in the signal:background ratio by over 25% of the control value (Y = yes) | Y (Column (c) shows whether there was an increase in the signal:background ratio by over 25% of the control value (Y = yes) | Y (Column (c) shows whether there was an increase in the signal:background ratio by over 25% of the control value (Y = yes)
3 | Y | N | 2.2 (2.0) | Y | N | 3.6 (2.7) | Y | N | – | OB(O)c1cccc(Cl)c1Cl [Compound 1022, 2,3-dichlorophenylboronic acid] | N (N = no) | Y (Column (c) shows whether there was an increase in the signal:background ratio by over 25% of the control value (Y = yes) | N (N = no)

The remaining lines, values behind:

Row | SMILES | (a) Decrease in background (without HRP with test cpd.) (0.01 mg/ml) | (b) Increase in signal (with HRP, with test cpd.) (0.01 mg/ml) | (d) Signal: Background: ratio (control = with no enhancer) (0.01 mg/ml) | (a) Decrease in background (without HRP with test cpd.) (0.1 mg/ml) | (b) Increase in signal (with HRP, with test cpd.) (0.1 mg/ml) | (d) Signal: Background: ratio (control = with no enhancer) (0.1 mg/ml) | (a) Decrease in background (without HRP with test cpd.) (1 mg/ml) | (b) Increase in signal (with HRP, with test cpd.) (1 mg/ml) | (d) Signal: Background: ratio (control = with no enhancer) (1 mg/ml) | (c) Increase in signal: background ratio (0.01 mg/ml) | (c) Increase in signal: background ratio (0.1 mg/ml) | (c) Increase in signal: background ratio (1 mg/ml)
4 | O=C(O)c1ccc(N=Nc2ccc(O)c(B(O)O)c2)cc1 [Compound 1018, 4-(3'-borono-4'-hydroxyphenylazo)benzoic acid] | Y | N | 5.0 | Y | N | 24.5 | Y | N | 4.2 (1.9) | Y (Column (c) shows whether there was an increase in the signal:background ratio by over 25% of the control value (Y = yes) | Y (Column (c) shows whether there was an increase in the signal:background ratio by over 25% of the control value (Y = yes) | Y (Column (c) shows whether there was an increase in the signal:background ratio by over 25% of the control value (Y = yes)
5 | CC(C)COB(c1ccccc1)c1ccccc1 [Compound 1019, diphenylisobutoxyborane] | Y | N | 3.2 (2.0) | Y | N | 3.0 (2.9) | Y | N | – | Y (Column (c) shows whether there was an increase in the signal:background ratio by over 25% of the control value (Y = yes) | N (N = no) | N (N = no)
